Data taken from the supplement of paper PMC11061612.

Key:
Experiment in all cases: combination Emax (second highest fraction inhibited in the dose matrix, 72 h); higher = more inhibition; extreme values may be limits of the assay
[1] = tested on: 8505C (Thyroid Gland Carcinoma)
Outline: (§1)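 After 24 hours at 37°C and 5% CO2 in 1536-well plates, cells in DMEM/F12 or RPMI plus 10% FBS received two-drug dose matrices for 72 hours. Viability came from CellTiter-Glo 2.0 luminescence and was scaled as inhibition, anchored at 0 by vehicle wells and at 1 by blank wells. Combination Emax is taken as the second-highest inhibition in the matrix, and Bliss excess as the observed combination effect less EA + EB − EA·EB, with EA and EB the single-agent effects.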

[2] = tested on: CHSA8926 (Chondrosarcoma)
Outline: as §1

[3] = tested on: COR-L279 (Small Cell Lung Carcinoma)
Outline: as §1

[4] = tested on: DMS-114 (Small Cell Lung Carcinoma)
Outline: as §1

[5] = tested on: G-361 (Melanoma)
Outline: as §1

[6] = tested on: HCC1187 (Breast Carcinoma)
Outline: as §1

[7] = tested on: IM-95 (Gastric Carcinoma)
Outline: as §1

[8] = tested on: M059J (Glioblastoma)
Outline: as §1

[9] = tested on: MN-60 (B-Lymphoblastic Leukemia)
Outline: as §1

[10] = tested on: MOLM-13 (Acute Myeloid Leukemia)
Outline: as §1

[11] = tested on: NCI-H2731 (Mesothelioma)
Outline: as §1

[12] = tested on: NCI-H520 (Squamous Cell Lung Carcinoma)
Outline: as §1

[13] = tested on: NCI-H526 (Small Cell Lung Carcinoma)
Outline: as §1

[14] = tested on: NCI-H929 (Plasma Cell Myeloma)
Outline: as §1

[15] = tested on: PC-3 (Prostate Carcinoma)
Outline: as §1

[16] = tested on: SJSA-1 (Osteosarcoma)
Outline: as §1

[17] = tested on: SK-GT-2 (Gastric Carcinoma)
Outline: as §1

[18] = tested on: ST486 (Burkitt's Lymphoma)
Outline: as §1

[19] = tested on: T-T (Esophageal Squamous Cell Carcinoma)
Outline: as §1

[20] = tested on: VMRC-RCZ (Kidney Carcinoma)
Outline: as §1

Structure (SMILES): Cc1c2c(nn1C)CSCc1cc(n(C)n1)CSc1cc(c3ccccc3c1)OCCCc1c(C(=O)O)n(C)c3c-2c(Cl)ccc13 [AZD5991] + C1CN(CCC1(C(=O)N[C@@H](CCO)C2=CC=C(C=C2)Cl)N)C3=NC=NC4=C3C=CN4 [Capivasertib] (first compound max 1 µM, 7x7, partner max 3 µM)
- combination Emax [1]: 0.158
- combination Emax [2]: 0.597
- combination Emax [3]: 0.579
- combination Emax [4]: 0.911
- combination Emax [5]: 1
- combination Emax [6]: 1
- combination Emax [7]: 0.784
- combination Emax [8]: 0.44
- combination Emax [9]: 0.339
- combination Emax [10]: 1
- combination Emax [11]: 0.21
- combination Emax [12]: 0.561
- combination Emax [13]: 0.47
- combination Emax [14]: 1
- combination Emax [15]: 0.287
- combination Emax [16]: 0.374
- combination Emax [17]: 0.132
- combination Emax [18]: 0.829
- combination Emax [19]: 0.922
- combination Emax [20]: 0.336

Structure (SMILES): COc1nnc2ccc(N3CCC(c4ccc(OCCN5CCN(C)C(=O)[C@H]5C)cc4)CC3)nn12 [AZD5153] + CCN(CCO)CCCOc1ccc2c(Nc3cc(CC(=O)Nc4cccc(F)c4)[nH]n3)ncnc2c1 [AZD2811] (first compound max 1 µM, 7x7, partner max 1 µM)
- combination Emax [1]: 0.5
- combination Emax [2]: 0.537
- combination Emax [3]: 0.907
- combination Emax [4]: 0.637
- combination Emax [5]: 0.649
- combination Emax [6]: 0.912
- combination Emax [7]: 0.336
- combination Emax [8]: 0.751
- combination Emax [9]: 0.74
- combination Emax [10]: 1
- combination Emax [11]: 0.489
- combination Emax [12]: 0.691
- combination Emax [13]: 0.944
- combination Emax [14]: 0.939
- combination Emax [15]: 0.39
- combination Emax [16]: 0.64
- combination Emax [17]: 0.302
- combination Emax [18]: 0.936
- combination Emax [19]: 0.582
- combination Emax [20]: 0.367

Structure (SMILES): Cc1cc2ncnn2cc1Nc1ncc2c(n1)n(C1CCOCC1)c(=O)n2C [AZD7648] + O=C(c1cc(Cc2n[nH]c(=O)c3ccccc23)ccc1F)N1CCN(C(=O)C2CC2)CC1 [Olaparib] (first compound max 10 µM, 7x7, partner max 10 µM)
- combination Emax [1]: 0.229
- combination Emax [2]: 0.241
- combination Emax [3]: 0.858
- combination Emax [4]: 0.236
- combination Emax [5]: 0.117
- combination Emax [6]: 0.294
- combination Emax [7]: 0.204
- combination Emax [8]: 0.431
- combination Emax [9]: 0.175
- combination Emax [10]: 0.43
- combination Emax [11]: 0.14
- combination Emax [12]: 0.485
- combination Emax [13]: 0.473
- combination Emax [14]: 0.761
- combination Emax [15]: 0.265
- combination Emax [16]: 0.18
- combination Emax [17]: 0.0892
- combination Emax [18]: 0.424
- combination Emax [19]: 0.0568
- combination Emax [20]: 0.129

Structure (SMILES): CN(CCO)CC[C@H](CSc1ccccc1)Nc1ccc(S(=O)(=O)NC(=O)c2ccc(N3CCC([C@@H](O)c4ccccc4-c4ccc(Cl)cc4)CC3)cc2)cc1S(=O)(=O)C(F)(F)F [AZD4320] + CN(C)CCCOc1ccc(-c2ccc3ncc4c(c3c2)n(C2CCOCC2)c(=O)n4C)cn1 [AZD0156] (first compound max 1 µM, 7x7, partner max 1 µM)
- combination Emax [1]: 0.174
- combination Emax [2]: 0.46
- combination Emax [3]: 0.983
- combination Emax [4]: 0.12
- combination Emax [5]: 0.288
- combination Emax [6]: 0.154
- combination Emax [7]: 0.69
- combination Emax [8]: 0.366
- combination Emax [9]: 0.263
- combination Emax [10]: 1
- combination Emax [11]: 0.109
- combination Emax [12]: 0.474
- combination Emax [13]: 0.925
- combination Emax [14]: 0.681
- combination Emax [15]: 0.241
- combination Emax [16]: 0.283
- combination Emax [17]: 0.154
- combination Emax [18]: 0.911
- combination Emax [19]: 0.158
- combination Emax [20]: 0.13

Structure (SMILES): CS(=O)(=O)CCNCc1ccc(-c2ccc3ncnc(Nc4ccc(OCc5cccc(F)c5)c(Cl)c4)c3c2)o1 [Lapatinib] + C[C@@H](Oc1cc(-c2cnn(C3CCNCC3)c2)cnc1N)c1c(Cl)ccc(F)c1Cl [Crizotinib] (first compound max 10 µM, 7x7, partner max 10 µM)
- combination Emax [1]: 0.721
- combination Emax [2]: 0.928
- combination Emax [3]: 0.953
- combination Emax [4]: 0.893
- combination Emax [5]: 0.972
- combination Emax [6]: 0.715
- combination Emax [7]: 0.854
- combination Emax [8]: 0.801
- combination Emax [9]: 0.834
- combination Emax [10]: 0.996
- combination Emax [11]: 0.921
- combination Emax [12]: 0.659
- combination Emax [13]: 0.732
- combination Emax [14]: 0.97
- combination Emax [15]: 0.494
- combination Emax [16]: 0.908
- combination Emax [17]: 0.995
- combination Emax [18]: 0.942
- combination Emax [19]: 0.938
- combination Emax [20]: 0.365

Structure (SMILES): CN(CCO)CC[C@H](CSc1ccccc1)Nc1ccc(S(=O)(=O)NC(=O)c2ccc(N3CCC([C@@H](O)c4ccccc4-c4ccc(Cl)cc4)CC3)cc2)cc1S(=O)(=O)C(F)(F)F [AZD4320] + Cc1cc2ncnn2cc1Nc1ncc2c(n1)n(C1CCOCC1)c(=O)n2C [AZD7648] (first compound max 1 µM, 7x7, partner max 10 µM)
- combination Emax [1]: 0.484
- combination Emax [2]: 0.688
- combination Emax [3]: 0.976
- combination Emax [4]: 0.321
- combination Emax [5]: 0.205
- combination Emax [6]: 0.114
- combination Emax [7]: 0.6
- combination Emax [8]: 0.386
- combination Emax [9]: 0.226
- combination Emax [10]: 1
- combination Emax [11]: 0.117
- combination Emax [12]: 0.541
- combination Emax [13]: 0.908
- combination Emax [14]: 0.737
- combination Emax [15]: 0.213
- combination Emax [16]: 0.283
- combination Emax [17]: 0.245
- combination Emax [18]: 0.959
- combination Emax [19]: 0.106
- combination Emax [20]: 0.0798
